Source: US20180037568A1, “MODULATORS OF METHYL MODIFYING ENZYMES, COMPOSITIONS AND USES THEREOF” (Constellation Pharmaceuticals, Inc., priority 2015, published 2018)
Where two headings read alike, the source gives them in different places.

Key:
[1] = biological target: EZH2 (Homo sapiens, UniProt Q15910); test: EZH2 nuc BSA Brij 1.5 (IC50): rPRC2, biotinylated oligonucleosome substrate, 3H SAM FlashPlate; type: biochemical
Method: EZH2 Nuc BSA Brij 1.5 (IC50):
Assays were carried out by mixing rPRC2 together with biotinylated oligonucleosome substrates in the presence of the radio-labeled enzyme co-factor, S-adenosyl-L-methionine (^3H SAM) (Perkin Elmer) and monitoring the enzymatically mediated transfer of tritiated methyl groups from ^3H SAM to histone lysine residues. The amount of resulting tritiated methyl histone product was measured by first capturing the biotinylated oligonucleosomes in streptavidin (SAV) coated FlashPlates (Perkin Elmer), followed by a wash step to remove un-reacted ^3H SAM, and then counting on a TopCount NXT 384 well plate scintillation counter (Perkin Elmer). The final assay conditions for EZH2 were as follows: 50 mM Tris Buffer pH 8.5, 1 mM DTT, 69 μM Brij-35 detergent, 5.0 mM MgCl2, 0.1 mg/mL BSA, 0.2 μM ^3H SAM, 0.2 μM biotinylated oligonucleosomes, 3.6 μM H3K27me3 peptide and 2 nM EZH2.
Compound IC50 Measurements were Obtained as Follows:
Compounds were first dissolved in 100% DMSO as 10 mM stock solutions. Ten point dose response curves were generated by dispensing varying amounts of the 10 mM compound solution in 10 wells of the 384 well plate (Echo; Labcyte), pure DMSO was then used to backfill the wells to insure all wells have the same amount of DMSO. A 12.5 μL volume of the HMT enzyme, H3K27me3 peptide and oligonucleosome substrate in assay buffer was added to each well of the assay plate using a Multidrop Combi (ThermoFisher). Compounds were pre-incubated with the enzyme for 20 min, followed by initiation of the methyltransferase reaction by addition of 12.5 μL of ^3H SAM in assay buffer (final volume=25 μL). The final concentrations of compounds ranged from a top default concentration of 80 μM down to 0.16 μM in ten 2-fold dilution steps. Reactions were carried out for 60 minutes and quenched with 20 μL per well of 1.96 mM SAH, 50 mM Tris pH 8.5, 200 mM EDTA. Stopped reactions were transferred to SAV coated Flashplates (Perkin Elmer), incubated for 120 min, washed with a plate washer, and then read on the TopCount NXT (1.0 min/well) to measure the amount of methyl histone product formed during the reaction. The amount of methyl histone product was compared with the amount of product formed in the 0% and 100% inhibition control wells allowing the calculation of % Inhibition in the presence of the individual compounds at various concentrations. IC50's were computed using a 4 parameter fit non-linear curve fitting software package (XLFIT, part of the database package, ActivityBase (IDBS)) where the four parameters were IC50, Hill slope, pre-transitional baseline (0% INH), and post-transitional baseline (100% INH); with the latter two parameters being fixed to zero and 100%, respectively, by default.

[2] = test system: H3K27me3 mark; test: H3K27me3 Alpha Hela Assay (AlphaLISA); type: cell-based; settings: Hela cells, read-out: EZH2 Cell H3K27me3 Alpha HeLa (EC50 K27me3)
In short: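 HeLa cells at 1,000/well were treated with ten 3-fold compound doses for 72 h at 37 °C. After lysis and histone extraction, H3K27me3 was detected by AlphaLISA with anti-K27me3 acceptor beads, biotinylated anti-H3 (C-ter) antibody (3 nM final) and streptavidin donor beads (20 μg/mL final). Signals were normalized to DMSO and curve-fitted for EC50.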

[3] = biological target: T1, PRC2 containing wt EZH2 (Homo sapiens, UniProt Q15910); test: EZH2 pep BSA Brij 4.0 LowE (IC50): 3H-SAM incorporation into biotinylated H3 peptide; type: biochemical; settings: 20 pM PRC2 wt EZH2, 0.9 μM 3H-SAM, biotinylated H3 peptide substrate, 2 μM H3K27me3 activating peptide
T1 construct: made in house
In short: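 PRC2 (wt EZH2, 20 pM) pre-incubated 120 min with compound, 0.9 μM 3H-SAM and 2 μM H3K27me3 activating peptide in pH 8.5 Tris/DTT/Brij-35/0.1% BSA, 0.8% DMSO. Biotinylated H3K27me1 peptide added (2 μM stock), 5 h at room temperature, EDTA/SAH quench, streptavidin Flashplate capture. IC50 from four-parameter fit versus full-activity and no-enzyme controls.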

[4] = EZH2 nuc BSA Brij 1.5 (IC50), 2 nM EZH2, 0.2 μM biotinylated oligonucleosomes, 0.2 μM 3H SAM, 3.6 μM H3K27me3 peptide
[5] = EZH2 pep BSA Brij 4.0 LowE (IC50)

Chain of EZH2 (Q15910 whole entry): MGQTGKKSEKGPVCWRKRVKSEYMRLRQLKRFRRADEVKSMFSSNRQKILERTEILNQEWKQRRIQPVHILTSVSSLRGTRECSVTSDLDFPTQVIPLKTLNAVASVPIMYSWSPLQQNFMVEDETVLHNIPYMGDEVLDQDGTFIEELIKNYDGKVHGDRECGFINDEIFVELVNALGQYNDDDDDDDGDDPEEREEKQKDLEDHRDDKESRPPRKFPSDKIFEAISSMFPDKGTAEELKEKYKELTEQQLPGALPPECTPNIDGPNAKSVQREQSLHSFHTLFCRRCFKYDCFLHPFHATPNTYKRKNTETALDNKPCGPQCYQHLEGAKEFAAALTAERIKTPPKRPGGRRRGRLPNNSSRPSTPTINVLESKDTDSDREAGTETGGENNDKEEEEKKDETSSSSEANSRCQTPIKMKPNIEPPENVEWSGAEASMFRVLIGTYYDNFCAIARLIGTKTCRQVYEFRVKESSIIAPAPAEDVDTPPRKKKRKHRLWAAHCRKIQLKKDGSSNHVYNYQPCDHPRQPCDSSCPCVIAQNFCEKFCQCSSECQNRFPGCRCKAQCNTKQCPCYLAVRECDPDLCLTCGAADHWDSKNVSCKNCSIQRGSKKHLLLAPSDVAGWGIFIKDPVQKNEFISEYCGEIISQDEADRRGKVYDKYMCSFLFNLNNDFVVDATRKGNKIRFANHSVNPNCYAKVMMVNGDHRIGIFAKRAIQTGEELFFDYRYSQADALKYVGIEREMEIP
Chain of EZH2 (O75530 whole entry partner): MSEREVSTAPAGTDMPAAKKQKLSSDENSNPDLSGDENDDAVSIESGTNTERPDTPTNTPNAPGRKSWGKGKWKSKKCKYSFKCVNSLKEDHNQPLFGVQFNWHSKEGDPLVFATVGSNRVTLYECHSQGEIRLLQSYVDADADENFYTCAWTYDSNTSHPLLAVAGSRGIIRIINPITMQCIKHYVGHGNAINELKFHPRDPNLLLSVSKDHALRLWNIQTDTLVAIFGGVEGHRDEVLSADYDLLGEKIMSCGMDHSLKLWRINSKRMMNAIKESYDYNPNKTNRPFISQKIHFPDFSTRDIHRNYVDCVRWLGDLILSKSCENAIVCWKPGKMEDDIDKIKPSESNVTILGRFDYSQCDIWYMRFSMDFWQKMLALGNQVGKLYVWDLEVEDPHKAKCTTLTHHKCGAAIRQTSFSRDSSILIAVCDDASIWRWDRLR
Chain of EZH2 (Q15022 whole entry partner): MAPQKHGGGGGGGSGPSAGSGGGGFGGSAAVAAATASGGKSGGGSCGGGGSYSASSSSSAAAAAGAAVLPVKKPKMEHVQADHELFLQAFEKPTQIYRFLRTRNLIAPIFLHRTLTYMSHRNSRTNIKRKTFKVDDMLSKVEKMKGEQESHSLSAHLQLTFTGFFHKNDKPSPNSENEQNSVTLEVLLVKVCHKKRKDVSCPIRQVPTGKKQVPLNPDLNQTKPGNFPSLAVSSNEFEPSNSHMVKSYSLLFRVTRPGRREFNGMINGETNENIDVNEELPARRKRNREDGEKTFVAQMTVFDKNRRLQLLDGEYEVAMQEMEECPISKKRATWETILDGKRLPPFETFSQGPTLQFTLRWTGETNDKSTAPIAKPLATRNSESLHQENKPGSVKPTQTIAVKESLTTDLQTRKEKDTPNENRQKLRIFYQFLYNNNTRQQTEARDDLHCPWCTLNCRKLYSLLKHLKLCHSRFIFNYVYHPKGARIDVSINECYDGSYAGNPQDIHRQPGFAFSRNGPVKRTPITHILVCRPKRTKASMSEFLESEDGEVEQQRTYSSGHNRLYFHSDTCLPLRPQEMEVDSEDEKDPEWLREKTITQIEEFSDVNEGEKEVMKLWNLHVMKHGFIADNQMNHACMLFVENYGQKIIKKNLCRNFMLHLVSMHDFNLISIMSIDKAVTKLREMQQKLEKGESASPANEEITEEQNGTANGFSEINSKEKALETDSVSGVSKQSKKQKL
T1 sequence (Q15910 whole entry): as the sequence (Q15910 whole entry) above
T1 sequence (O75530 whole entry partner): as the sequence (O75530 whole entry partner) above
T1 sequence (Q15022 whole entry partner): as the sequence (Q15022 whole entry partner) above
T1 sequence (Q09028 whole entry partner): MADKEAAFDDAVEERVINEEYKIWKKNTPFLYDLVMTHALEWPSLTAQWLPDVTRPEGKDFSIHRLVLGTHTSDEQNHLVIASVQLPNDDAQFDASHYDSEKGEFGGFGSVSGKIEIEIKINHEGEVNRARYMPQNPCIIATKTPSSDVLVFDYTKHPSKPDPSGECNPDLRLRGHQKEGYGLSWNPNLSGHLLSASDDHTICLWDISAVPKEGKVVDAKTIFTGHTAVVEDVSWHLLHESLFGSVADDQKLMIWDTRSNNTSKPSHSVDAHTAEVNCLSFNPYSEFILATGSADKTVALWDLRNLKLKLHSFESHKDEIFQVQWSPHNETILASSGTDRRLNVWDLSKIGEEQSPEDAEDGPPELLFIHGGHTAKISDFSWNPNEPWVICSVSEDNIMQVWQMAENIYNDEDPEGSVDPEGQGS
T1 sequence (Q6ZN18 whole entry partner): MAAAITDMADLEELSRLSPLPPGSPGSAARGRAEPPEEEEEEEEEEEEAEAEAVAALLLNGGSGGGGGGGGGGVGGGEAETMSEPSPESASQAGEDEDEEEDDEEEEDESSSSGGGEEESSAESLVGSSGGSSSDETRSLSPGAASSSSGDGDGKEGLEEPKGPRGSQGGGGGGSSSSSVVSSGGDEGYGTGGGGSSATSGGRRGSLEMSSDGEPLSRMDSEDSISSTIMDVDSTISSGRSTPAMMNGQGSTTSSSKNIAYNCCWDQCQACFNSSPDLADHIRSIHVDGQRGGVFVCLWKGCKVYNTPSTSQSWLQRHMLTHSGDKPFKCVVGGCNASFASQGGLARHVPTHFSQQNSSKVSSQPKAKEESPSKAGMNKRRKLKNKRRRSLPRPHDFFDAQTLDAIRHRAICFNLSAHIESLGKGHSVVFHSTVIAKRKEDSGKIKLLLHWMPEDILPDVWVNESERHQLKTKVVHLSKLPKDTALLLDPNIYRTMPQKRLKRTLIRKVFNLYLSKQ

SMILES | IC50 [1, 4] | EC50 ([2]; Homo sapiens, HeLa, 72 h) | IC50 [3, 5] | IC50 ([1]; read-out: EZH2 nuc BSA Brij 1.5 (IC50); 2 nM EZH2, 0.2 μM biotinylated oligonucleosomes, 0.2 μM 3H SAM, 3.6 μM H3K27me3 peptide) | EC50 ([2]; 72 hrs) | IC50 ([1]; 2 nM EZH2, 0.2 μM biotinylated oligonucleosomes, 0.2 μM 3H SAM, 3.6 μM H3K27me3 peptide; read-out: EZH2 nuc BSA Brij 1.5 (IC50)) | IC50 ([3]; read-out: EZH2 pep BSA Brij 4.0 LowE (IC50))
COc1cc(C)[nH]c(=O)c1CNC(=O)c1c(C)n(C(C)C2CCN(CC(F)F)C(C)C2)c2ccccc12 (single isomer, unassigned) [Compound 40, 1-(1-(1-(2,2-difluoroethyl)-2-methylpiperidin-4-yl)ethyl)-N-((4-methoxy-6-methyl-2-oxo-1,2-dihydropyridin-3-yl)methyl)-2-methyl-1H-indole-3-carboxamide] | < 100 nM | < 400 nM | < 100 nM |  |  |  | 
COc1cc(C)[nH]c(=O)c1CNC(=O)c1c(C)n(C(C)C2CCN(CC(F)(F)F)C(C)C2)c2ccccc12 (single isomer, unassigned) [Compound 43, N-((4-methoxy-6-methyl-2-oxo-1,2-dihydropyridin-3-yl)methyl)-2-methyl-1-(1-(2-methyl-1-(2,2,2-trifluoroethyl)piperidin-4-yl)ethyl)-1H-indole-3-carboxamide] |  |  | < 100 nM | < 100 nM | < 400 nM |  | 
COc1cc(C)[nH]c(=O)c1CNC(=O)c1c(C)n(C(C)C2CCN(C3COC3)CC2C(F)(F)F)c2ccccc12 (stereo not drawn) [Compound 8, N-((4-methoxy-6-methyl-2-oxo-1,2-dihydropyridin-3-yl)methyl)-2-methyl-1-(1-(1-(oxetan-3-yl)-3-(trifluoromethyl)piperidin-4-yl)ethyl)-1H-indole-3-carboxamide] | < 100 nM | > 2000 nM | < 100 nM |  |  |  | 
COc1cc(C)[nH]c(=O)c1CNC(=O)c1c(C)n(C(C)C2CCN(C)C(c3ccc(F)cc3)C2)c2ccccc12 (stereo not drawn) [Compound 33, 1-(1-(2-(4-fluorophenyl)-1-methylpiperidin-4-yl)ethyl)-N-((4-methoxy-6-methyl-2-oxo-1,2-dihydropyridin-3-yl)methyl)-2-methyl-1H-indole-3-carboxamide] |  | 400 to 2000 nM |  |  |  | < 100 nM | < 100 nM
